Laboratory results as given in patent US4960790A, “Derivatives of taxol, pharmaceutical compositions thereof and methods for the preparation thereof” (University of Kansas, priority 1989, dated 1990).
Counter-ions that a name gives are not always drawn. Like-named read-outs stand apart in the source and are kept apart here.

How the values were obtained:
[1] = test system: human mammary carcinoma MX-1 xenograft; test: Subrenal capsule human mammary carcinoma MX-1 xenograft in mice; conditions: for % T/C: Q4D Days 1, 5, 9; for % T/C / # OF ANMLS ALIVE CALC/TOTAL / Average tumor WEIGHT CHANGE (DELTA) / Average tumor weight, FINAL: Day 11; for ANML BODY WT DIFF (test minus control) / TEST BODY WT CHG / # OF ANMLS ALIVE CALC/TOTAL / Average tumor WEIGHT CHANGE (DELTA) / Average tumor weight, FINAL: Q4D; for ANML BODY WT DIFF (test minus control) / TEST BODY WT CHG: Day 1 to 11
From the text: The procedures followed are those described at pages 23-24 of NIH Publication No. 84-2635, In Vivo Cancer Model (February 1984).
In the procedure, test groups of mice (6 mice per test group) and control groups of 12 mice per group are utilized. A tumor fragment (human mammary carcinoma MX-1 xenograft), is implanted under the membranous covering of the kidney of each mouse.
Day 0: Anesthetize animals. Record body weight (Weigh Day 1). Implant tumor, measure and record. Randomize animals after they recover from the anesthetic. Run bacterial cultures. Determine solubilities of test agent. Record deaths daily.
Day 1: Check cultures. Discard experiment if contaminated. Prepare test materials. Initiate test agent injections (in the nape of the neck) based on individual body weight. Treatment is Q4D on Days 1, 5, and 9. Prepare test agent fresh on each injection day and administer based on individual body weight for that day.
Days 5 and 9: Prepare test agent fresh on each injection day and administer based on individual body weight for that day.
Day 11: End and evaluate experiment. Record body weights (Weigh Day 2). Measure tumor in OMU's (Ocular Micrometer Unit--10 OMU's=1 mm) and record.
The parameter measured is mean tumor weight change (delta) based on length and width measurements in millimeters. Mean animal body weights are computed for Day 1 and Day 11, compute T/C for all test groups with>65% survivors on Day 11. An excessive body weight change difference (test minus control) may also be used in evaluating toxicity. The dimensions are measured and recorded in Ocular Micrometer Units (OMU). A computer is utilized for the following:
(1) Converts OMU's to millimeters (mm).
(2) Calculates tumor weights (mgs) from tumor dimensions (mm×mm) following the formula for the volume of a prolate ellipsoid: [formula] (3) Calculates the change (delta) in mean tumor weight for each group of mice:
Change in Mean Tumor Weight=Mean Tumor WeightFINAL -Mean Tumor WeightINITIAL.
(4) Calculates the change (delta) in mean tumor weight for test (T) and control (C) groups.
(5) Calculates T/C% for all test groups with>65% survivors on Final Evaluation Day: [formula]

[2] = Chemical stability in buffer or water; assay type: physicochemical
Procedure: The compound was subjected to stability studies according to the following procedures.
(§1) Stabilities of derivatives at various pHs were studied at 25° and 37°. The plasma studies were conducted at 37° in rat and human plasma. Human plasma was obtained from Watkins Hospital and rat plasma was obtained from the Animal Care Unit of the University of Kansas. The derivative concentration used was around 20-25 μg/ml. A stock solution of the compound was prepared at 0.8-1.0 mg/mL and was added to plasma to give the desired concentration (20-25 μg/mL). One hundred microliter samples were removed and was quenched with 250 uL. acetonitrile and centrifuged to precipitate the plasma proteins. The degradation kinetics were studied by HPLC plotting peak area vs. time. The t90 and t50 were calculated. Both chemical and plasma studies were followed by high performance liquid chromatography using a RP-8 column (15 cm) and a precolumn (5 cm). The detector was set at 227 nm. The mobile phase consisted of 0.02M acetate (pH 5): acetonitrile 50:50 or 35:65 and the flow rate ranged from 1-1.5 mL/min or the same solvents containing 0.001M tetrabutylammoniumydrogensulphate and a flow rate of 1 mL/min.
The identity of this peak was further confirmed by the degradation studies of the new derivatives. Thus, 2'(DMG) taxol was incubated with water at 37° and the product was concentrated and purified by preparative TLC. The product after purification was analyzed by HPLC and spectroscopic methods.

[3] = test system: microtubule assembly; test: In vitro microtubule assembly kinetics; assay type: biochemical; conditions: rank order
Procedure: (A) In vitro Microtubule Assembly Kinetics Studies
The microtubule assembly study was conducted using both 2' and 7-derivatives according to the in vitro procedures disclosed, for example, in Mellado et al., Biochemical and Biophysical Research Communications, Vol. 124, No. 2 (1984), pp. 329-336; Magri et al., J. Org. Chem., 51, 797-802 (1986); and Parness et al., Biochemical and Biophysical Research Communications, Vol. 105, No. 3, pp. 1082-1091 (1982).

[4] = test system: B-16 melanoma cells; test: In vitro B16 melanoma cell proliferation; assay type: cell-based; conditions: rank order
Procedure: These studies were conducted according to standard procedures as described in Donoso and Himes, Cancer Biochem. Biophysics, vol. 7, (1984), p. 133.

[5] = Plasma stability, human plasma; assay type: in vitro ADME; conditions: 37° C.
Procedure: as §1, with “The derivative concentration used was around 20-25 μg/ml. A stock solution of the compound was prepared at 0.8-1.0 mg/mL and was added to plasma to give the desired concentration (20-25 μg/mL).” left out

[6] = Solubility; assay type: physicochemical; conditions: read-out: Solubility
[7] = Plasma stability, rat plasma; assay type: in vitro ADME; conditions: rat plasma (20 μg/mL), 37° C.
Procedure: as §1

[8] = Plasma stability, dog plasma; assay type: in vitro ADME; conditions: dog plasma (20 μg/mL), 37° C.

CC(=O)O[C@H]1C(=O)[C@@]2(C)[C@H]([C@H](OC(=O)c3ccccc3)[C@]3(O)C[C@H](OC(=O)[C@H](OC(=O)CN(C)C)[C@@H](NC(=O)c4ccccc4)c4ccccc4)C(C)=C1C3(C)C)[C@]1(OC(C)=O)CO[C@@H]1C[C@@H]2O [Compound 1, 2'-(N,N-dimethylglycyl)taxol]
% T/C ([1]; Table 1, 5.90 mg/kg): -78% | ANML BODY WT DIFF (test minus control) ([1]; Table 1, 5.90 mg/kg): -.5 | TEST BODY WT CHG ([1]; Table 1, 5.90 mg/kg): -2.2 | # OF ANMLS ALIVE CALC/TOTAL ([1]; Table 1, 5.90 mg/kg): 6/6 | Average tumor WEIGHT CHANGE (DELTA) ([1]; Table 1, 5.90 mg/kg): -.48 MGS | Average tumor weight, FINAL ([1]; Table 1, 5.90 mg/kg): .13 MGS | % T/C ([1]; Table 1, 8.90 mg/kg): -53% | ANML BODY WT DIFF (test minus control) ([1]; Table 1, 8.90 mg/kg): .8 | TEST BODY WT CHG ([1]; Table 1, 8.90 mg/kg): -.9 | # OF ANMLS ALIVE CALC/TOTAL ([1]; Table 1, 8.90 mg/kg): 5/6 | Average tumor WEIGHT CHANGE (DELTA) ([1]; Table 1, 8.90 mg/kg): -.41 MGS | Average tumor weight, FINAL ([1]; Table 1, 8.90 mg/kg): .36 MGS | ANML BODY WT DIFF (test minus control) ([1]; Table 1, 13.30 mg/kg): -.6 | TEST BODY WT CHG ([1]; Table 1, 13.30 mg/kg): -2.3 | # OF ANMLS ALIVE CALC/TOTAL ([1]; Table 1, 13.30 mg/kg): 4/6 | Average tumor WEIGHT CHANGE (DELTA) ([1]; Table 1, 13.30 mg/kg): -.64 MGS | Average tumor weight, FINAL ([1]; Table 1, 13.30 mg/kg): .00 MGS | ANML BODY WT DIFF (test minus control) ([1]; Table 1, 20.00 mg/kg): -.5 | TEST BODY WT CHG ([1]; Table 1, 20.00 mg/kg): -2.2 | # OF ANMLS ALIVE CALC/TOTAL ([1]; Table 1, 20.00 mg/kg): 4/6 | Average tumor WEIGHT CHANGE (DELTA) ([1]; Table 1, 20.00 mg/kg): -.56 MGS | Average tumor weight, FINAL ([1]; Table 1, 20.00 mg/kg): .00 MGS | % T/C ([1]; Table 1, 30.00 mg/kg): TOX | TEST BODY WT CHG ([1]; Table 1, 30.00 mg/kg): -3.8 | # OF ANMLS ALIVE CALC/TOTAL ([1]; Table 1, 30.00 mg/kg): 1/6 | Average tumor weight, FINAL ([1]; Table 1, 30.00 mg/kg): .00 MGS | Identity of degradation product ([2]; incubated with water at 37°): the product is taxol | Ability to assemble microtubules (order) [3]: taxol >7-(N,N-dimethylglycyl)taxol(11)>2'(N,N-diethylaminopropionyl)taxol(8)>2'(N,N-dimethylglycyl)taxol(2) | Order of effectiveness in B-16 melanoma cell proliferation study [4]: taxol>2'-(N,N-dimethylglycyl)taxol>2'-(N,N-diethylaminopropionyl)taxol>7-(N,N-dimethylglycyl)taxol

CC(=O)O[C@H]1C(=O)[C@@]2(C)[C@H]([C@H](OC(=O)c3ccccc3)[C@]3(O)C[C@H](OC(=O)[C@H](OC(=O)CN(C)C)[C@@H](NC(=O)c4ccccc4)c4ccccc4)C(C)=C1C3(C)C)[C@]1(OC(C)=O)CO[C@@H]1C[C@@H]2O [Compound 2, Methanesulphonic acid salt of 2'-(N,N-dimethylglycyl)taxol]
half-life ([5]; human plasma (20 μg/mL)): 3.31 h | solubility ([6]; Clear): 2000 µg/mL | solubility ([6]; Slightly Hazy): 15000 µg/mL | half-life [7]: 0.0508 h | half-life [8]: 2.03 h | half-life ([2]; 0.02 M Acetate (0.1 mg/mL), pH 3.5, 25° C.): 96.2 h | half-life ([2]; 0.02 M Acetate (0.1 mg/mL), pH 4.5, 25° C.): 55.4 h | half-life ([2]; water (2 mg/mL), pH 3.8, 37° C.): 89.8 h

CC(=O)O[C@H]1C(=O)[C@]2(C)[C@@H](OC(=O)CN(C)C)C[C@H]3OC[C@@]3(OC(C)=O)[C@H]2[C@H](OC(=O)c2ccccc2)[C@]2(O)C[C@H](OC(=O)[C@H](O)[C@@H](NC(=O)c3ccccc3)c3ccccc3)C(C)=C1C2(C)C [Compound 8, Methanesulphonic acid salt of 7-(dimethylglycyl)taxol]
half-life ([5]; human plasma (10 μg/mL)): 24.4 h | half-life ([5]; human plasma (20 μg/mL)): 27.7 h | solubility [6]: > 2000 µg/mL | half-life [7]: 17.3 h | half-life ([2]; 0.02 M Acetate, pH 3.5, 25° C.): 3400 h | half-life ([2]; 0.02 M Phosphate, pH 7.4, 25° C.): 33.8 h | half-life ([2]; 0.02 M acetate, pH 4.5, 25° C.): 1720 h
